Laboratory results reported in PMC11677527, “Predicting Pharmacokinetics of Active Constituents in Spatholobi caulis by Using Physiologically Based Pharmacokinetic Models” (Pharmaceuticals, 2024).
Like-named read-outs stand apart in the source and are kept apart here.

Assays:
[1] = Verification pharmacokinetic experiment in rats, SPC 60 g crude drug/kg by gavage, UFLC-MS/MS, DAS 2.0; assay type: in vivo, rat
Description: To validate the accuracy of PBPK models in predicting the pharmacokinetics of SPC constituents at different oral doses, the pharmacokinetic behavior of these four constituents from SPC in rats were analyzed by UFLC-MS/MS. The parameters were calculated using Drug and Statistics Software version 2.0, and then these validated values (Val.) were used to check the accuracy of the Calc. values and evaluated by FE.
The pharmacokinetic fitting results of rats given 60 g crude drug/kg body weight of SPC by gavage were verified by experiments. The verification experiment was conducted according to our previous pharmacokinetic study. In brief, 1.5 mL suspension of SPC was given to rats by oral administration; 300 μL blood samples from orbital venous at 0.083, 0.25, 0.5, 0.75, 1.0, 1.5, 2, 3, 4, 6, 8, and 12 h were collected and pretreated with heparin sodium. After centrifugation, the plasma samples were obtained and further processed for subsequent detection by UFLC-MS/MS; the detailed analysis method is shown in Supplementary Data (Table S1 and Figure S1). The concentration-time curve of each compound was gained, and the pharmacokinetic parameters were calculated using DAS 2.0 software (DAS 2.0, Mathematical Pharmacology Professional Committee of China, Shanghai, China). The results of these four constituents were compared with the PBPK parameters predicted in rats at an oral dose of 60 g crude drug/kg body weight of SPC.
1. The instrument and analytical conditions of UFLC-MS/MS method
4 constituents (1. 3′-methoxydadizein; 2. 8-O-methylretusin; 3. Daidzin; and 4. […]
The internal standard (IS) carbamazepine with a purity of more than 99 % was purchased from Beijing JK-chemical technology Co. Ltd., (Beijing China). Heparin sodium was gained from Tianjin biochemical pharmaceutical Co. Ltd, (Tianjin, China).
Ammonium acetate of HPLC grade, methanol and acetonitrile of LC-MS grade were purchased from Sigma (LOT# BCBK6717V, sigma-aldrich, Co., MO, USA) and Fisher (Fisher Corp., Fair lawn, NJ, USA) respectively. The experimental ultrapure water was prepared by Millipore Milli-Q ultrapure water preparation apparatus (Millipore Sigma, […]
The detailed information of Shimadzu UFLC-MS/MS 8050 liquid mass system equipped with Nexera X2UFLC liquid chromatography system and 8050 triple quadrupole mass spectrometers with an electrospray ionization source were listed in our previous study. The supporting LabSolution workstation was used for data […]
The separation without superposition of analytes in plasma sample was achieved on a Kinetex® C18 chromatographic column (100mm×2.1mm i.d.; 2.6 μm, 100 Å; Phenomenex, Inc., Torrance, CA, USA) assembled with a Phenomenex p/n AJ0-9000 C18 protection column. The mobile phase was consisted of 0.5 mM ammonium acetate in water (A) and ACN (B). The gradient elution program was selected ultimately as […]
95 % B (18.7–22 min). Column and automatic sampler temperature were set as 30 °C and 4 °C respectively. The flow rate of mobile phase was 0.35 mL/min while sample injection volume was 4 μL.
Multiple reaction monitoring (MRM) of positive or negative modes were used as scanning modes for the analytes and IS. Other essential parameters were successively optimized as: Nebulizing gas flow, 3 L/min; Heating gas flow, 10 L/min; Drying gas flow, 10 L/min; Interface temperature, 300 °C; DL temperature, 250 °C; Interface and detector voltage were each set as 3.0 kV and 1.8 kV. The detection parameters such as retention time (RT), dwell time (DT), quadrupole 1 pre-rod bias (Q1), collision energy […]
Table S1 The retention time and ion equivalent parameters of 4 constituents in rat […]
Constituents Retention Precursor Precursor Product time Pre energy Pre time (min) ion species ion ion (msec) Bias (V) Bias

[2] = parameters: method as in PMID 34303214; settings: rats, p.o. SPC 30 g crude drug/kg; doses of 1-4: 0.062, 0.11, 0.71, 1.31 mg/kg; cited from earlier work
[3] = Observed pharmacokinetics in rats after oral SPC (previous study); assay type: in vivo, rat; settings: p.o. SPC
Caco-2 cell monolayer = tested on: Caco-2 cell monolayer; parameters: method as in PMID 36680806, PMID 26501241; settings: Caco-2 cell monolayer model; cited from earlier work
[4] = compartment model parameters, DAS 2.0, rats p.o. SPC 60 g crude drug/kg, Mean, 5 rats
[5] = statistical moment parameters, DAS 2.0, rats p.o. SPC 60 g crude drug/kg, Mean, 5 rats
[6] = statistical moment parameters, DAS 2.0, rats p.o. SPC 60 g crude drug/kg, Mean, 5 rats, in µg·h²/mL

COc1cc(-c2coc3cc(O)ccc3c2=O)ccc1O [Constituent 1, 3′-methoxydadizein]
K10 [1, 4]: 0.474 h⁻¹
K12 [1, 4]: 0.207 h⁻¹
K21 [1, 4]: 0.135 h⁻¹
Ka [1, 4]: 4.239 h⁻¹
Tlag [1, 4]: 0 h
V1/F [1, 4]: 12.821 L/kg
t1/2Ka [1, 4]: 0.185 h
t1/2α [1, 4]: 1.009 h
concentration at 0.083 h ([1]; rat, plasma, oral, time 0.083 h, rats p.o. SPC 60 g crude drug/kg, doses of 1-4: 0.124, 0.22, 1.4, 2.62 mg/kg, 5 rats): 2.98 ng/mL
concentration at 0.25 h ([1]; rat, plasma, oral, time 0.25 h, rats p.o. SPC 60 g crude drug/kg, doses of 1-4: 0.124, 0.22, 1.4, 2.62 mg/kg, 5 rats): 5.52 ng/mL
concentration at 0.5 h ([1]; rat, plasma, oral, time 0.5 h, rats p.o. SPC 60 g crude drug/kg, doses of 1-4: 0.124, 0.22, 1.4, 2.62 mg/kg, 5 rats): 7.09 ng/mL
concentration at 0.75 h ([1]; rat, plasma, oral, time 0.75 h, rats p.o. SPC 60 g crude drug/kg, doses of 1-4: 0.124, 0.22, 1.4, 2.62 mg/kg, 5 rats): 6.16 ng/mL
concentration at 1 h ([1]; rat, plasma, oral, time 1 h, rats p.o. SPC 60 g crude drug/kg, doses of 1-4: 0.124, 0.22, 1.4, 2.62 mg/kg, 5 rats): 5.77 ng/mL
concentration at 1.5 h ([1]; rat, plasma, oral, time 1.5 h, rats p.o. SPC 60 g crude drug/kg, doses of 1-4: 0.124, 0.22, 1.4, 2.62 mg/kg, 5 rats): 5.11 ng/mL
concentration at 2 h ([1]; rat, plasma, oral, time 2 h, rats p.o. SPC 60 g crude drug/kg, doses of 1-4: 0.124, 0.22, 1.4, 2.62 mg/kg, 5 rats): 2.89 ng/mL
concentration at 3 h ([1]; rat, plasma, oral, time 3 h, rats p.o. SPC 60 g crude drug/kg, doses of 1-4: 0.124, 0.22, 1.4, 2.62 mg/kg, 5 rats): 1.75 ng/mL
concentration at 4 h ([1]; rat, plasma, oral, time 4 h, rats p.o. SPC 60 g crude drug/kg, doses of 1-4: 0.124, 0.22, 1.4, 2.62 mg/kg, 5 rats): 1.46 ng/mL
concentration at 6 h ([1]; rat, plasma, oral, time 6 h, rats p.o. SPC 60 g crude drug/kg, doses of 1-4: 0.124, 0.22, 1.4, 2.62 mg/kg, 5 rats): 0.553 ng/mL
concentration at 8 h ([1]; rat, plasma, oral, time 8 h, rats p.o. SPC 60 g crude drug/kg, doses of 1-4: 0.124, 0.22, 1.4, 2.62 mg/kg, 5 rats): 0.582 ng/mL
concentration at 12 h ([1]; rat, plasma, oral, time 12 h, rats p.o. SPC 60 g crude drug/kg, doses of 1-4: 0.124, 0.22, 1.4, 2.62 mg/kg, 5 rats): 0.197 ng/mL
AUC(0-t) ([1]; rat, plasma, po, 0.124 mg/kg, compartment model parameters, DAS 2.0, rats p.o. SPC 60 g crude drug/kg, Mean, 5 rats, read-out: AUC(0-t)): 19.1 ng·h/mL
AUC(0-inf) ([1]; rat, plasma, po, 0.124 mg/kg, compartment model parameters, DAS 2.0, rats p.o. SPC 60 g crude drug/kg, Mean, 5 rats, read-out: AUC(0-∞)): 20.5 ng·h/mL
CL/F ([1]; rat, plasma, po, 0.124 mg/kg, compartment model parameters, DAS 2.0, rats p.o. SPC 60 g crude drug/kg, Mean, 5 rats, read-out: CL/F (converted)): 101 mL/min/kg
half-life ([1]; rat, plasma, po, 0.124 mg/kg, compartment model parameters, DAS 2.0, rats p.o. SPC 60 g crude drug/kg, Mean, 5 rats, read-out: t1/2β (converted)): 14.4 h
AUC(0-t) ([1]; rat, plasma, po, 0.124 mg/kg, statistical moment parameters, DAS 2.0, rats p.o. SPC 60 g crude drug/kg, Mean, 5 rats, read-out: AUC(0-t)): 19.1 ng·h/mL
AUC(0-inf) ([1]; rat, plasma, po, 0.124 mg/kg, statistical moment parameters, DAS 2.0, rats p.o. SPC 60 g crude drug/kg, Mean, 5 rats, read-out: AUC(0-∞)): 20 ng·h/mL
CL/F ([1]; rat, plasma, po, 0.124 mg/kg, statistical moment parameters, DAS 2.0, rats p.o. SPC 60 g crude drug/kg, Mean, 5 rats, read-out: CLz/F (converted)): 103 mL/min/kg
Cmax ([1]; rat, plasma, po, 0.124 mg/kg, statistical moment parameters, DAS 2.0, rats p.o. SPC 60 g crude drug/kg, Mean, 5 rats, read-out: Cmax): 7.18 ng/mL
MRT last ([1]; rat, plasma, po, 0.124 mg/kg, statistical moment parameters, DAS 2.0, rats p.o. SPC 60 g crude drug/kg, Mean, 5 rats, read-out: MRT(0-t)): 2.77 h
MRT inf ([1]; rat, plasma, po, 0.124 mg/kg, statistical moment parameters, DAS 2.0, rats p.o. SPC 60 g crude drug/kg, Mean, 5 rats, read-out: MRT(0-∞)): 3.44 h
Tmax ([1]; rat, plasma, po, 0.124 mg/kg, statistical moment parameters, DAS 2.0, rats p.o. SPC 60 g crude drug/kg, Mean, 5 rats, read-out: Tmax): 0.55 h
Vd/F ([1]; rat, plasma, po, 0.124 mg/kg, statistical moment parameters, DAS 2.0, rats p.o. SPC 60 g crude drug/kg, Mean, 5 rats, read-out: Vz/F): 25.9 L/kg
half-life ([1]; rat, plasma, po, 0.124 mg/kg, statistical moment parameters, DAS 2.0, rats p.o. SPC 60 g crude drug/kg, Mean, 5 rats, read-out: t1/2z (converted)): 2.9 h
AUC(0-t) ([1]; rat, plasma, po, 2.62 mg/kg, rats, p.o. SPC 60 g crude drug/kg, doses of 1-4: 0.124, 0.22, 1.42, 2.62 mg/kg, n = 5, read-out: AUC0→t Val.): 19.1 ng·h/mL
AUC(0-inf) ([1]; rat, plasma, po, 2.62 mg/kg, rats, p.o. SPC 60 g crude drug/kg, doses of 1-4: 0.124, 0.22, 1.42, 2.62 mg/kg, n = 5, read-out: AUC0→∞ Val.): 20 ng·h/mL
Cmax ([1]; rat, plasma, po, 2.62 mg/kg, rats, p.o. SPC 60 g crude drug/kg, doses of 1-4: 0.124, 0.22, 1.42, 2.62 mg/kg, n = 5, read-out: Cmax Val.): 7.2 ng/mL
Tmax ([1]; rat, plasma, po, rats, p.o. SPC 60 g crude drug/kg, doses of 1-4: 0.124, 0.22, 1.42, 2.62 mg/kg, n = 5, read-out: Tmax Val.): 0.55 h
Cz [1, 5]: 0.202 µg/L
VRT(0-t) [1, 5]: 7.148 h^2
VRT(0-∞) [1, 5]: 16.239 h^2
elimination rate constant [1, 5]: 0.247 h⁻¹
AUMC(0-t) [1, 6]: 52.953
AUMC(0-∞) [1, 6]: 68.893
AUC0→t Obs. [2]: 8.4 ng·h/mL
AUC0→∞ Obs. [2]: 9 ng·h/mL
Cmax Obs. [2]: 3.9 ng/mL
Tmax Obs. [2]: 0.42 h
time of slight secondary absorption peak [3]: 6 h
Papp (Caco-2 cell monolayer): 2.2 ×10⁻⁶ cm/s
